The results in this text go back to patent US11066369B2, “N-(pyridin-2-yl)pyridine-sulfonamide derivatives and their use in the treatment of disease” (Novartis AG, priority 2016, dated 2021).

In this assay the target is T1, horseradish peroxidase (HRP) tagged delF508-CFTR (Homo sapiens, UniProt P13569, DEL508-508).
T1 construct: expressed in transfected cells
Briefly: Measurement of delF508-CFTR-HRP surface expression in CFBE41o- cells.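 On DelF508-CFTR-HRP Amax %: percent efficacy relative to reference corrector lumacaftor.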 It counts as cell-based. The following applies: CFBE41o- cells; for EC50: read-out: DelF508-CFTR-HRP EC50; for Emax: read-out: DelF508-CFTR-HRP Amax %. Summed up:
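Surface-trafficked delF508-CFTR detected via extracellular HRP tag, read as luminescence from a membrane-impermeant substrate in CFBE41o- cells. Cells pre-induced 48h with 500 ng/mL doxycycline, then exposed 24h at 37° C to a 10-point, 3-fold dilution series from 10 μM (DMSO ≤0.5%). Triplicate dose-responses fitted logistically for EC50 after per-plate normalization; fold change versus reference compound.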

Where [1] appears, read: mean of at least two replicates.
Where [2] appears, read: delF508-CFTR-HRP surface expression.

Where a name gives a salt, the structure may show the parent alone. Read-outs that look alike come from different tables or passages of the source.

T1 sequence (P13569 with tags, fused parts or gaps DEL508-508): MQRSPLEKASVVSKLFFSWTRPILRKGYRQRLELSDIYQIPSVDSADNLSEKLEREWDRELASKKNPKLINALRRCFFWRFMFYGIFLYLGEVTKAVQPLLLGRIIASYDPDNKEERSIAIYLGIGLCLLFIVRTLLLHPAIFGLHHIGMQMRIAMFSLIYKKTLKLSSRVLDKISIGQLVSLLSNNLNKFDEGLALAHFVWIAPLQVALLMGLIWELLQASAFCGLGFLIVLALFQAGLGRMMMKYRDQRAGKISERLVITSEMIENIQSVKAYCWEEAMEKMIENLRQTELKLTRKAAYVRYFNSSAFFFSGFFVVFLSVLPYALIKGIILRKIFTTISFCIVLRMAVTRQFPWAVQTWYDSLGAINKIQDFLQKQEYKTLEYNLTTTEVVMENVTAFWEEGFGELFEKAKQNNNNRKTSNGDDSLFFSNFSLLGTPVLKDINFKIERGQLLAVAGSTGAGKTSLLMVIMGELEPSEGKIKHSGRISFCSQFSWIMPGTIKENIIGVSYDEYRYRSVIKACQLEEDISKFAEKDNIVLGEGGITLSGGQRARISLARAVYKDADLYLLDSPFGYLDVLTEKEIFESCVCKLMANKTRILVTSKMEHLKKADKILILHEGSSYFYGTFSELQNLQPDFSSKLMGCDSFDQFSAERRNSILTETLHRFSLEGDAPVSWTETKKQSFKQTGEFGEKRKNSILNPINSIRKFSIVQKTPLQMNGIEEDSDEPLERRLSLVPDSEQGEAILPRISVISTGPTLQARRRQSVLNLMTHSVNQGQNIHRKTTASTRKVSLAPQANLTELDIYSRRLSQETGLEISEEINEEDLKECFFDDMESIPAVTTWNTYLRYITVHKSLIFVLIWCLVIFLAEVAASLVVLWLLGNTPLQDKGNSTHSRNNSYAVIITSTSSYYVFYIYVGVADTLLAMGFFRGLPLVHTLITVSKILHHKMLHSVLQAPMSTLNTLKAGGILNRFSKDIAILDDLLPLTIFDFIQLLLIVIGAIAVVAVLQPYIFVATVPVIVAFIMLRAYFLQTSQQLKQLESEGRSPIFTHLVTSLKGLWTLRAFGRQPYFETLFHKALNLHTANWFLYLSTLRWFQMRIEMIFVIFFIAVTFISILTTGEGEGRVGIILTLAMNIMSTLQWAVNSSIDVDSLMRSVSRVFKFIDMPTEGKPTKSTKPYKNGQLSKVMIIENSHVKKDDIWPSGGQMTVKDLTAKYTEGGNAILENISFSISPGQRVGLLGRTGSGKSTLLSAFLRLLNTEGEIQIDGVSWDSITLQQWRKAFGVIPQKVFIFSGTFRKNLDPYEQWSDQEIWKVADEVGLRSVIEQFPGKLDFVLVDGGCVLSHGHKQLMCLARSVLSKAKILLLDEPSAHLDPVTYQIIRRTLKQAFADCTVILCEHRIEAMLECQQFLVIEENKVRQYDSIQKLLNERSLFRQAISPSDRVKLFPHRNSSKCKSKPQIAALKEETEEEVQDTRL

As for `COc1ccc(Cl)c(-c2nc(NS(=O)(=O)c3cccc(N4CCCC(C)(C(=O)O)C4)n3)ccc2C(F)(F)F)c1` (stereo not shown) [Example 414, 1-(6-(N-(6-(2-chloro-5-methoxyphenyl)-5-(trifluoromethyl)pyridin-2-yl)sulfamoyl)pyridin-2-yl)-3-methylpiperidine-3-carboxylic Acid], the EC50 under setting [1] came out at 1.89 µM. Also, the Emax (surface expression Amax) stood at 684%.

For the compound `CCc1ccccc1-c1nc(NS(=O)(=O)c2cccc(N3CCCC(C)(C(=O)O)C3)n2)ccc1Cl` (stereo not shown) [Example 387, 1-(6-(N-(5-chloro-6-(2-ethylphenyl)pyridin-2-yl)sulfamoyl)pyridin-2-yl)-3-methylpiperidine-3-carboxylic Acid], the EC50 under setting [1] was determined as 1.63 µM. For the setting “surface expression Amax”, the Emax was found to be 588%.

Consider `Cc1ccccc1-c1nc(NS(=O)(=O)c2cccc(N[C@H]3C[C@H](C(=O)O)C3)n2)ccc1C(F)(F)F` [Example 355, (1r,3r)-3-((6-(N-(6-(o-tolyl)-5-(trifluoromethyl)pyridin-2-yl)sulfamoyl)pyridin-2-yl)amino)cyclobutanecarboxylic Acid], for which, under setting [2], the Emax is 140% and the EC50 worked out at 3.69 µM.

For `Cc1ccccc1-c1cccc(NS(=O)(=O)c2cccc(N3CCC[C@@](C)(C(=O)O)C3)n2)n1` [Example 412, (R)-3-methyl-1-(6-(N-(6-(o-tolyl)pyridin-2-yl)sulfamoyl)pyridin-2-yl)piperidine-3-carboxylic Acid], the EC50 under setting [1] stood at 1.89 µM. In addition, the Emax (surface expression Amax) was determined as 221%.

Consider `Cc1ccccc1-c1nc(NS(=O)(=O)c2cccc(N[C@H]3CC[C@H](C(=O)O)CC3)n2)ccc1C(F)(F)F` [Example 364, (1r,4r)-4-((6-(N-(6-(o-tolyl)-5-(trifluoromethyl)pyridin-2-yl)sulfamoyl)pyridin-2-yl)amino)cyclohexanecarboxylic Acid], for which, under setting [2], the Emax stood at 231% and the EC50 came to 1.59 µM.

For the compound `CC1(C(=O)O)CCCN(c2cccc(S(=O)(=O)Nc3ccc(Cl)c(-c4ccccc4C(C)(C)C)n3)n2)C1` (stereo not shown) [Example 390, 1-(6-(N-(6-(2-(tert-butyl)phenyl)-5-chloropyridin-2-yl)sulfamoyl)pyridin-2-yl)-3-methylpiperidine-3-carboxylic Acid], the EC50 under setting [1] came out at 0.761 µM. In addition, the Emax (surface expression Amax) was 889%.

For `Cc1ccccc1-c1nc(NS(=O)(=O)c2cccc(N)n2)ccc1F` [Example 70, 6-amino-N-(5-fluoro-6-(o-tolyl)pyridin-2-yl)pyridine-2-sulfonamide], under setting [2], the Emax was 197% and the EC50 was found to be 2.64 µM.

In the case of `COc1cc(NS(=O)(=O)c2cccc(N3CCNCC3)n2)nc(-c2c(C)cccc2C)c1` [Example 139, N-(6-(2,6-dimethylphenyl)-4-methoxypyridin-2-yl)-6-(piperazin-1-yl)pyridine-2-sulfonamide], under setting [2], the Emax was determined as 53.2% and the EC50 turned out to be 4.97 µM.

On to `Cc1ccc(C(F)(F)F)cc1-c1nc(NS(=O)(=O)c2cccc(N)n2)ccc1Cl` [Example 51, 6-amino-N-(5-chloro-6-(2-methyl-5-(trifluoromethyl)phenyl)pyridin-2-yl)pyridine-2-sulfonamide], for which, under setting [2], the Emax was determined as 332% and the EC50 was 1.98 µM.

Regarding `CC(C)COc1ccccc1-c1nc(NS(=O)(=O)c2cccc(N3CCCC(C)(C(=O)O)C3)n2)ccc1C(F)(F)F` (stereo not shown) [Example 386, 1-(6-(N-(6-(2-isobutoxyphenyl)-5-(trifluoromethyl)pyridin-2-yl)sulfamoyl)pyridin-2-yl)-3-methylpiperidine-3-carboxylic Acid], under setting [1], the EC50 was determined as 0.605 µM.

As for `Cc1ccccc1-c1nc(NS(=O)(=O)c2cccc(N3CC[C@H](C(=O)O)C3)n2)ccc1C(F)(F)F` [Example 348, (3S)-1-(6-{[6-(2-methylphenyl)-5-(trifluoromethyl)pyridin-2-yl]sulfamoyl}pyridin-2-yl)pyrrolidine-3-carboxylic Acid], under setting [2], the Emax was determined as 145% and the EC50 was 2.83 µM.

Take `Cc1ccc(F)cc1-c1nc(NS(=O)(=O)c2cccc(N3CCN(C(=O)OC(C)(C)C)CC3)n2)ccc1Cl` [Example 298, tert-butyl 4-(6-(N-(5-chloro-6-(5-fluoro-2-methylphenyl)pyridin-2-yl)sulfamoyl)pyridin-2-yl)piperazine-1-carboxylate]: under setting [2], the Emax was 677% and the EC50 was found to be 1.49 µM.

As to `Nc1cccc(S(=O)(=O)Nc2ccc(Cl)c(-c3ccccc3C(F)F)n2)n1` [Example 65, 6-amino-N-(5-chloro-6-(2-(difluoromethyl)phenyl)pyridin-2-yl)pyridine-2-sulfonamide], under setting [2], the Emax turned out to be 220% and the EC50 is 1.54 µM.

On to `Cc1ccc(Cl)c(-c2nc(NS(=O)(=O)c3cccc(N)n3)ccc2Cl)c1F` [Example 38, 6-amino-N-(5-chloro-6-(6-chloro-2-fluoro-3-methylphenyl)pyridin-2-yl)pyridine-2-sulfonamide], for which, under setting [2], the Emax was determined as 376% and the half-maximal effective concentration (EC50) is 2 µM.

For `O=S(=O)(Nc1ccc(Cl)c(-c2ccccc2Cl)n1)c1cccc(N2CCNCC2)n1` [Example 156, N-(5-chloro-6-(2-chlorophenyl)pyridin-2-yl)-6-(piperazin-1-yl)pyridine-2-sulfonamide], under setting [2], the Emax is 178% and the EC50 is 4.03 µM.

In the case of `Cc1c(F)cccc1-c1nc(NS(=O)(=O)c2cccc(N3CCC[C@@](C)(C(=O)O)C3)n2)ccc1C(F)(F)F` [Example 417, (3R)-1-(6-{[6-(3-fluoro-2-methylphenyl)-5-(trifluoromethyl)pyridin-2-yl]sulfamoyl}pyridin-2-yl)-3-methylpiperidine-3-carboxylic Acid], the EC50 under setting [1] was determined as 1.88 µM.

On to `C[C@@]1(C(=O)O)CCCN(c2cccc(S(=O)(=O)Nc3cccc(-c4ccccc4C4CC4)n3)n2)C1` [Example 405, (R)-1-(6-(N-(6-(2-cyclopropylphenyl)pyridin-2-yl)sulfamoyl)pyridin-2-yl)-3-methylpiperidine-3-carboxylic Acid], for which the EC50 under setting [1] came to 2.48 µM. For the same compound, the Emax (surface expression Amax) worked out at 235%.

`CC1(C(=O)O)CCN(c2cccc(S(=O)(=O)Nc3ccc(Cl)c(-c4ccccc4C4CC4)n3)n2)CC1` [Example 430, 1-(6-(N-(5-chloro-6-(2-cyclopropylphenyl)pyridin-2-yl)sulfamoyl)pyridin-2-yl)-4-methylpiperidine-4-carboxylic Acid]: the EC50 under setting [1] is 1.71 µM. For the setting “surface expression Amax”, the Emax was found to be 370%.

Turning to `COc1ccc(NS(=O)(=O)c2cccc(N)n2)nc1-c1c(C)cccc1C` [Example 72, 6-amino-N-(6-(2,6-dimethylphenyl)-5-methoxypyridin-2-yl)pyridine-2-sulfonamide hydrochloride], under setting [2], the Emax turned out to be 193% and the EC50 was found to be 3.41 µM.

Take `CC1(C(=O)O)CCCN(c2cccc(S(=O)(=O)Nc3ccc(C(F)(F)F)c(-c4ccccc4Cl)n3)n2)C1` (stereo not shown) [Example 399, 1-(6-(N-(6-(2-chlorophenyl)-5-(trifluoromethyl)pyridin-2-yl)sulfamoyl)pyridin-2-yl)-3-methylpiperidine-3-carboxylic Acid]: under setting [1], the EC50 is 2.09 µM. Further, for the setting “surface expression Amax”, the Emax stood at 728%.

As to `Cc1ccccc1-c1nc(NS(=O)(=O)c2cccc(OC3COCC3=O)n2)ccc1C(F)(F)F` (racemic) [Example 292, 6-((4-oxotetrahydrofuran-3-yl)oxy)-N-(6-(o-tolyl)-5-(trifluoromethyl)pyridin-2-yl)pyridine-2-sulfonamide], under setting [2], the Emax stood at 225% and the EC50 came to 2.97 µM.
